Reference: EP1336412A1, “Combinations of an antibiotic and a murein hydrolase inhibitor” (priority 2002, dated 2003)

How the values were obtained:
[1] = tested on: E. coli MHD52 (deletion of AmiABC); assay: Growth of E. coli with inhibited murein septum cleavage (MHD52) after addition of agent; type: cell-based, Escherichia coli; settings: LB medium, 37°C, aerobic
Description: (§1) Bacteria were cultivated aerobically at 37° C in LB medium (J.H. Miller, Experiments in Molecular Genetics, Cold Spring Harbor Laboratory, Cold Spring Harbor (1972)). Agar plates contained 1.5 % agar (Gibco BRL, Paisley, Scotland). Growth was monitored by optical density readings at 578 nm in an Eppendorf photometer (Eppendorf, Hamburg, Germany). Antibiotics were used at the following concentrations: 50 (µg/ml ampicillin (amp), 50 (µg/ml kanamycin (kan), 20 (µg/ml chloramphenicol (cm) and 12.5 µg/ml tetracyclin (tet).
(§2) At the indicated time point (arrow) deoxycholate (1 g/l) or crystal violet (1 mg/l), respectively, were added. See the results in Fig. 4 (filled circles: wild type E. coli plus deoxycholate; filled triangles: MHD52 plus crystal violet; filled squares: MHD52 plus deoxycholate). Likewise, the cells were grown in the same manner, but at the indicated time point (arrow) vancomycin (20 µg/ml) was added. See the results in Fig. 5 (open circles: wild type E. coli; filled circles: wild type E. coli plus vancomycin; open squares: MHD52; filled squares: MHD52 plus vancomycin).

wild-type E. coli MC1061 = assay: Growth of wild-type E. coli after addition of agent; type: cell-based, Escherichia coli; settings: vancomycin 20 µg/ml; LB medium, 37°C, aerobic; wild type (septum cleavage not inhibited)
Description: as §1, §2

[2] = tested on: bacterial cells following the inhibition of the cleavage of the bacterial murein septum; assay: Sensitivity of bacterial cells to detergents and high molecular weight antibiotics after inhibition of murein septum cleavage; type: cell-based

Compound	sensitivity of bacterial cells [2]	further results
CN(C)c1ccc(C(=C2C=CC(=[N+](C)C)C=C2)c2ccc(N(C)C)cc2)cc1 [crystal violet]	–	effect on growth (Fig. 4) ([1]; crystal violet 1 mg/l, MHD52): insignificant effect
CN[C@H](CC(C)C)C(=O)N[C@H]1C(=O)N[C@@H](CC(N)=O)C(=O)N[C@H]2C(=O)N[C@H]3C(=O)N[C@H](C(=O)N[C@H](C(=O)O)c4cc(O)cc(O)c4-c4cc3ccc4O)[C@H](O)c3ccc(c(Cl)c3)Oc3cc2cc(c3O[C@@H]2O[C@H](CO)[C@@H](O)[C@H](O)[C@H]2O[C@H]2C[C@](C)(N)[C@H](O)[C@H](C)O2)Oc2ccc(cc2Cl)[C@H]1O [vancomycin]	–	effect on growth (Fig. 5) ([1]; vancomycin 20 µg/ml, MHD52 (septum cleavage inhibited)): growth controlling effect; effect on growth (Fig. 5) (wild-type E. coli MC1061): normal growth
Triton X100	significant increase in the sensitivity	–
mersacidin	significant increase in the sensitivity	–
ramoplanin	significant increase in the sensitivity	–
